Results taken from patent US20220218725A1, “METHODS AND MATERIALS FOR TREATING CANCER” (Mayo Foundation for Medical Education and Research, priority 2019, published 2022).

Key:
Assay in all cases: Cell viability, Annexin V/PI assay
Hs 578T cells = assay type: cell-based; settings: Hs 578T (Breast cancer); 48 hours; KPT-330 0.1-1.0 μM, CS 1-3 mM, single agent or combination
Experimental: (§4) KPT-330 purchased from Selleckchem (cat no: S7252) was dissolved in DMSO while CS (Santa Cruz, Calif.S 2016-36-6), sodium salicylate (Sigma-Aldrich, cat no: S3007), acetyl salicylate (Sigma-Aldrich, cat no: CAS 50-78-2) was diluted in PBS. […] The concentration range of KPT-330 was 0.05-1.0 μM while CS was 1-3 mM were used for ex vivo treatment and incubation time ranged from 24 hours to 72 hours.

MCF7 cells = assay type: cell-based; settings: MCF7 (Breast cancer); 48 hours; KPT-330 0.1-1.0 μM, CS 1-3 mM, single agent or combination
Experimental: as §4

Mino cells = assay type: cell-based; settings: Mino (MCL); 48 hours; KPT-330 0.1-1.0 μM, CS 1-3 mM, single agent or combination
Experimental: (§1) Cell lines were purchased from the cell line repositories ATCC (Manassas, Va.) or DSMZ (Braunschweig, Germany). These included MCL cell lines: JeKo-1, Mino; TCL cell lines: Karpas-299, SR-786; DLBCL cell lines: OCI-Ly1 (LY-1), OCI-Ly3 (LY-3), OCI-Ly19 (LY-19), SU-DHL-6 (DHL-6); MM cell lines: RPMI, U266, OPM2, Xgl, KMS2; ALL cell lines: CRL-1783; non-small cell lung cancer: NCI-H460, A549, HCC827; small cell lung cancer: H1048; sarcoma: Fuji, SW872. Cell lines were cultured according to instruction.
(§2) KPT-330 purchased from Selleckchem (cat no: S7252) was dissolved in DMSO while CS (Santa Cruz, Calif.S 2016-36-6), sodium salicylate (Sigma-Aldrich, cat no: S3007), acetyl salicylate (Sigma-Aldrich, cat no: CAS 50-78-2) was diluted in PBS. Ketorolac (Sigma-Aldrich, cat no: 1356665), Bortezomib (Selleckchem, cat no: S1013), gemcitabine (Sigma-Aldrich, cat no: G6423), Leptomycin-B (Sigma-Aldrich, cat no: L2913-2X) and KPT-185 (Selleckchem, cat no: S7125) were dissolved in DMSO. The concentration range of KPT-330 was 0.05-1.0 μM while CS was 1-3 mM were used for ex vivo treatment and incubation time ranged from 24 hours to 72 hours. For the PARP inhibitor assay, olaparib 10 μM (SelleckChem, cat no: AZD2281 Ku-0059436) was used.
(§3) The viability assessment for cell lines and primary patients samples were conducted with the Annexin V/PI method.

RPMI (MM cell line) = assay type: cell-based; settings: 48 hours, KPT-330 0.1-1.0 μM, CS 1-3 mM, single agent or combination
Experimental: as §1, §2, §3

CRL-1873 (RS4-11 cells) = assay type: cell-based; settings: CRL-1873 (ALL); 48 hours; KPT-330 0.1-1.0 μM, CS 1-3 mM, single agent or combination
Experimental: as §1, §2, §3

H460 cells = assay type: cell-based; settings: H460 (Non-small cell lung cancer); 48 hours; KPT-330 0.1-1.0 μM, CS 1-3 mM, single agent or combination
Experimental: as §1, §2, §3

SW872 cells = assay type: cell-based; settings: SW872 (Sarcoma); 48 hours; KPT-330 0.1-1.0 μM, CS 1-3 mM, single agent or combination
Experimental: as §1, §2, §3

OPM2 cells = assay type: cell-based; settings: OPM2 (MM); 48 hours; KPT-330 0.1-1.0 μM, CS 1-3 mM, single agent or combination
Experimental: as §1, §2, §3

Karpas-299 cells = assay type: cell-based; settings: Karpas-299 (TCL); 48 hours; KPT-330 0.1-1.0 μM, CS 1-3 mM, single agent or combination
Experimental: as §1, §2, §3

H1048 cells = assay type: cell-based; settings: H1048 (Small-cell lung cancer); 48 hours; KPT-330 0.1-1.0 μM, CS 1-3 mM, single agent or combination
Experimental: as §1, §2, §3

KMS2 cells = assay type: cell-based; settings: KMS2 (MM); 48 hours; KPT-330 0.1-1.0 μM, CS 1-3 mM, single agent or combination
Experimental: as §1, §2, §3

FuJi cells = assay type: cell-based; settings: FuJi (Sarcoma); 48 hours; KPT-330 0.1-1.0 μM, CS 1-3 mM, single agent or combination
Experimental: as §1, §2, §3

A549 cells = assay type: cell-based; settings: A549 (Non-small cell lung cancer); 48 hours; KPT-330 0.1-1.0 μM, CS 1-3 mM, single agent or combination
Experimental: as §1, §2, §3

OCI-Ly19 cells = assay type: cell-based; settings: OCI-Ly19 (DLBCL); 48 hours; KPT-330 0.1-1.0 μM, CS 1-3 mM, single agent or combination
Experimental: as §1, §2, §3

Xg1 cells = assay type: cell-based; settings: Xg1 (MM); 48 hours; KPT-330 0.1-1.0 μM, CS 1-3 mM, single agent or combination
Experimental: as §1, §2, §3

HCC827 cells = assay type: cell-based; settings: HCC827 (Non-small cell lung cancer); 48 hours; KPT-330 0.1-1.0 μM, CS 1-3 mM, single agent or combination
Experimental: as §1, §2, §3

SR-786 cells = assay type: cell-based; settings: SR-786 (TCL); 48 hours; KPT-330 0.1-1.0 μM, CS 1-3 mM, single agent or combination
Experimental: as §1, §2, §3

U266 cells = assay type: cell-based; settings: U266 (MM); 48 hours; KPT-330 0.1-1.0 μM, CS 1-3 mM, single agent or combination
Experimental: as §1, §2, §3

DHL6 cells = settings: DHL6 (DLBCL); 48 hours; KPT-330 0.1-1.0 μM, CS 1-3 mM, single agent or combination
Experimental: as §1, §2, §3

Compound	% viability normalized for respective controls (Hs 578T cells)	% viability normalized for respective controls (MCF7 cells)	% viability normalized for respective controls (Mino cells)	% viability normalized for respective controls (RPMI (MM cell line))	% viability normalized for respective controls (CRL-1873 (RS4-11 cells))	% viability normalized for respective controls (H460 cells)	% viability normalized for respective controls (SW872 cells)	% viability normalized for respective controls (OPM2 cells)	% viability normalized for respective controls (Karpas-299 cells)	% viability normalized for respective controls (H1048 cells)	% viability normalized for respective controls (KMS2 cells)	% viability normalized for respective controls (FuJi cells)	% viability normalized for respective controls (A549 cells)	% viability normalized for respective controls (OCI-Ly19 cells)	% viability normalized for respective controls (Xg1 cells)	% viability normalized for respective controls (HCC827 cells)	% viability normalized for respective controls (SR-786 cells)	% viability normalized for respective controls (U266 cells)	% viability normalized for respective controls (DHL6 cells)
O=C(/C=C\n1cnc(-c2cc(C(F)(F)F)cc(C(F)(F)F)c2)n1)NNc1cnccn1 [KPT-330, (Z)-3-[3-[3,5-bis (trifluoromethyl)phenyl]-1,2,4-triazol-1-yl]-N′-pyrazin-2-ylprop-2-enehydrazide]	73%	98%	89%	87.5%	79%	93%	82%	82%	88%	81%	79%	93%	101%	57%	76%	78%	91%	75%	–
C[N+](C)(C)CCO.O=C([O-])c1ccccc1O [CS, choline salicylate]	87%	87%	86%	85%	91.5%	105%	88%	98%	80%	92%	83%	85%	94%	88%	95%	90%	100%	93%	101%
